Measurements from patent publication US12532889B2, “Herbicidal compositions comprising glufosinate” (BASF SE, priority 2023, dated 2026).
“And” between values parts separate entries of the source, which are not always exact repeats. Identical values can stand only once.

How the values were obtained:
Experiment in all cases: Post-emergence application in field trials (Example A)
Assay type in all cases: in vivo
ERISS (Erigeron sp.) = conditions: Table 1.8, ERISS height 30-50 cm, 14 DAT, water 200 l/ha
Protocol: (§1) In the examples below, using the method of S. R. Colby (1967) “Calculating synergistic and antagonistic responses of herbicide combinations”, Weeds 15, p. 22ff., the value E, which is expected if the activity of the individual active compounds is only additive, was calculated:
(§2) [formula] • where • X=percent activity using active herbicide A at an application rate a; • Y=percent activity using active herbicide B (e.g. glufosinate) at an application rate b; • E=expected activity (in %) by A+B at application rates a+b.
(§3) If the value found experimentally is higher than the value E calculated according to Colby, a synergistic effect is present.
(§4) On field test sites, natural weed infestation or seeded weeds were treated post-emergence of the weeds.
(§5) In the field trials, the weeds were treated as indicated below.
(§6) In the following experiments, the herbicidal activity for the individual herbicidal compositions (solo and mixture applications) was assessed at the indicated days after treatment (DAT). The assessments for the damage on undesired weeds caused by the composition was carried out using a scale from 0 to 100%, compared to the untreated control plants. Here, 0 means no damage and 100 means complete destruction of the plants.

ZEAMX (Zea mays) = test system: ZEAMX (Zea mays)
Protocol: as §1, §2, §3, §4, §5, §6

[1] = test system: DIGHO (Digitaria horizontalis); conditions: Table 1.4, DIGHO growth stage 24, 14 DAT, water 200 l/ha
Protocol: as §1, §2, §3, §4, §5, §6

CYPIR (Cyperus iria) = conditions: Table 2.1, CYPIR growth stage 13-14, height 3-5 cm, 14 DAT, water 300 l/ha
Protocol: as §1, §2, §3, §4, §5, §6

[2] = test system: HORVS (Hordeum vulgare (spring barley)); conditions: Table 3.1, HORVS volunteer barley, growth stage 22-24, height 32-35 cm, 28 DAT, water 100 l/ha
Protocol: as §1, §2, §3, §4, §5, §6

[3] = test system: HORVW (Hordeum vulgare (winter barley)); conditions: B-2 400 g ai/ha, growth stage 23-29, height 20-25 cm
Protocol: as §1, §2, §3, §4, §5, §6

[4] = test system: DIGSA (Digitaria sanguinalis); conditions: for % Herbicidal activity: B-2 400 g ai/ha, height 10-15 cm; for % herbicidal activity: Table 4.1, DIGSA height 2-8 cm, water 140 l/ha
Protocol: as §1, §2, §3, §4, §5, §6

GALAP (Galium aparine) = conditions: Table 3.1; GALAP growth stage 11-16, height 2-20 cm; A-1 18, B-2 500 g ai/ha; 28 DAT; water 100 l/ha
Protocol: as §1, §2, §3, §4, §5, §6

[5] = test system: LOLMU (Lolium multiflorum)
Protocol: as §1, §2, §3, §4, §5, §6

[6] = test system: POLCO (Polygonum convolvulus); conditions: Table 3.2, A-1 12.5, B-2 500 g ai/ha, 14 DAT, water 100 l/ha
Protocol: as §1, §2, §3, §4, §5, §6

[7] = test system: ECHCG (Echinocloa crus-galli); conditions: B-2 400 g ai/ha, growth stage 23-30, height 15-20 cm
Protocol: as §1, §2, §3, §4, §5, §6

[8] = test system: CYPES (Cyperus esculentus); conditions: 21 DAT, water 140 l/ha
Protocol: as §1, §2, §3, §4, §5, §6

AVEFA (Avena fatua) = conditions: Table 3.1; AVEFA growth stage 22-24, height 18-29 cm; A-1 12.5, B-2 500 g ai/ha; 28 DAT; water 100 l/ha
Protocol: as §1, §2, §3, §4, §5, §6

[9] = 7 DAT, B-2 400 g ai/ha, growth stage 22-25, height 20-25 cm

CP(=O)(O)CCC(N)C(=O)O (stereo not shown) [B-2, glufosinate-ammonium]
% herbicidal activity (ERISS (Erigeron sp.); A-1 25, B-2 400 g ai/ha): 40%
% herbicidal activity (ERISS (Erigeron sp.); A-1 50, B-2 400 g ai/ha): 40%
% herbicidal activity (ZEAMX (Zea mays); 7 DAT, B-2 400 g ai/ha, growth stage 15-16, height 50-60 cm): 75%
% Herbicidal activity (ZEAMX (Zea mays); 21 DAT, B-2 400 g ai/ha, growth stage 15-16, height 27-33 cm): 65%
% herbicidal activity (ZEAMX (Zea mays); 21 DAT, B-2 400 g ai/ha, growth stage 15-16, height 50-60 cm): 75%
% herbicidal activity (ZEAMX (Zea mays); 28 DAT, B-2 400 g ai/ha, growth stage 15-16, height 50-60 cm): 40%
% herbicidal activity (ZEAMX (Zea mays); Table 1.12, ZEAMX volunteer corn, A-1 50, B-2 400 g ai/ha, 21 DAT, water 100 l/ha): 47%
% herbicidal activity ([1]; A-1 25, B-2 400 g ai/ha): 30%
% herbicidal activity ([1]; A-1 50, B-2 400 g ai/ha): 30%
% herbicidal activity (CYPIR (Cyperus iria); A-1 12.5, B-2 500 g ai/ha): 77%
% herbicidal activity (CYPIR (Cyperus iria); A-1 25, B-2 500 g ai/ha): 77%
% herbicidal activity ([2]; A-1 12.5, B-2 500 g ai/ha): 15%
% herbicidal activity ([2]; A-1 18, B-2 500 g ai/ha): 15%
% Herbicidal activity ([3]; 7 DAT): 60%
% Herbicidal activity ([3]; 21 DAT): 30%
% herbicidal activity ([3]; 21 DAT): 40%
% Herbicidal activity ([4]; 20 DAT, growth stage 21-22): 20%
% Herbicidal activity ([4]; 21 DAT, growth stage 22): 75%
% Herbicidal activity ([4]; 41 DAT, growth stage 22): 55%
% herbicidal activity ([4]; A-1 12.5, B-2 655 g ai/ha, 21 DAT): 49%
% herbicidal activity ([4]; A-1 25, B-2 655 g ai/ha, 21 DAT): 49%
% herbicidal activity ([4]; A-1 50, B-2 655 g ai/ha, 21 DAT): 49%
% herbicidal activity (GALAP (Galium aparine)): 27%
% Herbicidal activity [5, 9]: 70%
% herbicidal activity [5, 9]: 50%
% herbicidal activity ([5]; 21 DAT, B-2 400 g ai/ha, growth stage 22-25, height 20-25 cm): 30%
% Herbicidal activity ([5]; 28 DAT, B-2 400 g ai/ha, growth stage 22-25, height 20-25 cm): 40%
% herbicidal activity ([5]; Table 1.28, LOLMU growth stage 11-23, height 5-10 cm, A-1 25, B-2 400 g ai/ha, 28 DAT, water 200 l/ha): 68%
% herbicidal activity [6]: 28%
% Herbicidal activity ([7]; 7 DAT): 60%
% herbicidal activity ([7]; 7 DAT): 40% and 60%
% Herbicidal activity ([7]; 21 DAT): 60%
% herbicidal activity ([7]; 21 DAT): 60%
% Herbicidal activity ([7]; 28 DAT): 60%
% herbicidal activity ([8]; Table 4.2, A-1 25, B-2 655 g ai/ha): 18%
% herbicidal activity ([8]; Table 4.2, A-1 50, B-2 655 g ai/ha): 18%
% herbicidal activity (AVEFA (Avena fatua)): 68%
